We go through 12 compounds from US20230131899A1, “INHIBITORS OF MICROBIALLY INDUCED AMYLOID” (Axial Therapeutics, Inc., priority 2020, published 2023).

The target in experiment [1] is T1, E. coli CsgA (Escherichia coli, UniProt P28307).
T1 construct: made in house; host or cells: E. coli NEB 3016 slyD::kan, pET11d
Nature of the experiment: In vitro ThioflavinT assay of CsgA aggregation (CsgA ThT Assay). The format is biochemical. As to conditions: 1005 minutes; for remaining activity at 25 µM: compound 25 μM; for remaining activity at 100 µM: compound 100 μM. A digest of the protocol: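 Purified C-terminal His-tagged CsgA, monomerised by desalting and 30-kDa filtration, at 2-20 μM with 20-40 μM ThT in 50 mM potassium phosphate pH 7.3, 1% DMSO, compounds 3.125-200 uM; room temperature, fluorescence (ex 438/em 495 nm) read every 15 min. Background-subtracted signal expressed as percent inhibition versus vehicle at 6-6.5 or 8-9 h, or as percent control AUC.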

The subject of experiment [2] is CsgA expression in E. coli MC4100. Nature of the experiment: Monocolonized Mouse Model: csgA expression in fecal pellets by qRT-PCR. The note with it: 30 mg/kg, day five of treatment, relative to mice treated with vehicle alone (FIGS. 4A-B). On the technique in general: Real-time PCR tracks product formation cycle by cycle.
Experiment [3] has as its system CsgA expression in WT E. coli. Kind of experiment: qRT-PCR of CsgA expression in WT E. coli. The format is cell-based. The note with it: previously observed.
Where [4] appears, read: read-out: CsgA ThT Assay (10 μM CsgA) % Control AUC at 1005 minutes, 25 μM (activity range), CsgA 10 μM, black plates, class symbol.
Where [5] appears, read: read-out: CsgA ThT Assay (10 μM CsgA) % Control AUC at 1005 minutes, 25 μM, mean AUC as % of DMSO control, CsgA 10 μM, black plates.
Setting [6] is: read-out: CsgA ThT Assay (10 μM CsgA) % Control AUC at 1005 minutes, 100 μM (activity range), CsgA 10 μM, black plates, class symbol.
The mark [7] stands for this setting: read-out: CsgA ThT Assay (10 μM CsgA) % Control AUC at 1005 minutes, 100 μM, mean AUC as % of DMSO control, CsgA 10 μM, black plates.

Read-outs that look alike come from different tables or passages of the source.

T1 sequence (P28307 23-151): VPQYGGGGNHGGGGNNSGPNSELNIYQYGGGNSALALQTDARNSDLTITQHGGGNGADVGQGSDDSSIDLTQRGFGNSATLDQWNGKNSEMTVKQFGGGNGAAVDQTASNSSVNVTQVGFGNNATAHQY

Consider `CCCN1CC(C(=O)O)n2c(c(-c3cccc(C(F)(F)F)c3)c(Cc3cccc4ccccc34)cc2=O)S1(=O)=O` (racemic) [Compound 016, 8-(naphthalen-1-ylmethyl)-6-oxo-2-propyl-9-(3-(trifluoromethyl)phenyl)-3,4-dihydro-2H,6H-pyrido[1,2-e][1,2,5]thiadiazine-4-carboxylic acid 1,1-dioxide], for which the figures for the remaining activity at 25 µM in experiment [1] (setting [4]) and in experiment [1] (setting [5]) were 31 to 60% and 48%, respectively. Besides, the remaining activity at 100 µM in experiment [1] (setting [6]) was 31 to 60%; in experiment [1] (setting [7]), 33%. The “csgA expression in E. coli MC4100 monocolonized mice” value in experiment [2] is on record as “reduction of csgA expression”.

Consider `CCCCCN1CC(C(=O)O)n2c(c(-c3cccc(C(F)(F)F)c3)c(Cc3cccc4ccccc34)cc2=O)S1(=O)=O` (racemic) [Compound 025, 8-(naphthalen-1-ylmethyl)-6-oxo-2-pentyl-9-(3-(trifluoromethyl)phenyl)-3,4-dihydro-2H,6H-pyrido[1,2-e][1,2,5]thiadiazine-4-carboxylic acid 1,1-dioxide], for which the remaining activity at 25 µM in experiment [1] (setting [4]) was 31 to 60%; in experiment [1] (setting [5]), 49%.

Consider `CN1CC(C(=O)O)n2c1c(-c1cccc(C(F)(F)F)c1)c(Cc1cccc3ccccc13)c(Br)c2=O` (stereo not shown) [Compound 119, 6-bromo-1-methyl-7-(naphthalen-1-ylmethyl)-5-oxo-8-(3-(trifluoromethyl)phenyl)-1,2,3,5-tetrahydroimidazo[1,2-a]pyridine-3-carboxylic acid], for which the remaining activity at 25 µM is 31 to 60% in experiment [1] (setting [4]) and 47% in experiment [1] (setting [5]). Further, the values for the remaining activity at 100 µM in experiment [1] (setting [6]) and in experiment [1] (setting [7]) were 31 to 60% and 35%, respectively.

For the compound `CCc1c(Cc2cccc3ccccc23)c(-c2cccc(C(F)(F)F)c2)c2n(c1=O)C(C(=O)O)CN(C1CCCCC1)S2(=O)=O` (stereo not shown) [Compound 116, 2-cyclohexyl-7-ethyl-8-(naphthalen-1-ylmethyl)-6-oxo-9-(3-(trifluoromethyl)phenyl)-3,4-dihydro-2H,6H-pyrido[1,2-e][1,2,5]thiadiazine-4-carboxylic acid 1,1-dioxide], the remaining activity at 25 µM in experiment [1] (setting [4]) was 11 to 31%; in experiment [1] (setting [5]), 30%. Further, the remaining activity at 100 µM is 31 to 60% in experiment [1] (setting [6]) and 38% in experiment [1] (setting [7]).

With `CN1CC(C(N)=O)n2c(c(-c3cccc(C(F)(F)F)c3)c(Cc3cccc4ccccc34)cc2=O)S1(=O)=O` (stereo not shown) [Compound 030, 2-methyl-8-(naphthalen-1-ylmethyl)-6-oxo-9-(3-(trifluoromethyl)phenyl)-3,4-dihydro-2H,6H-pyrido[1,2-e][1,2,5]thiadiazine-4-carboxamide 1,1-dioxide], the remaining activity at 25 µM in experiment [1] (setting [4]) is > 60%; in experiment [1] (setting [5]), 82%.

As to `O=C(O)C1CN(CCCCO)S(=O)(=O)c2c(-c3cccc(C(F)(F)F)c3)c(Cc3cccc4ccccc34)c(NC3CCCC3)c(=O)n21` (stereo not shown) [Compound 121, 7-(cyclopentylamino)-2-(4-hydroxybutyl)-8-(naphthalen-1-ylmethyl)-6-oxo-9-(3-(trifluoromethyl)phenyl)-3,4-dihydro-2H,6H-pyrido[1,2-e][1,2,5]thiadiazine-4-carboxylic acid 1,1-dioxide], the remaining activity at 25 µM in experiment [1] (setting [4]) is 31 to 60%; in experiment [1] (setting [5]) it was 32%. In addition, the remaining activity at 100 µM in experiment [1] (setting [6]) was 11 to 31%; in experiment [1] (setting [7]), 15%.

With `O=C(O)C1C[S+]([O-])c2c(-c3cccc(C(F)(F)F)c3)c(Cc3cccc4ccccc34)cc(=O)n21` (racemic) [Compound 027b, 7-(naphthalen-1-ylmethyl)-5-oxo-8-(3-(trifluoromethyl)phenyl)-2,3-dihydro-5H-thiazolo[3,2-a]pyridine-3-carboxylic acid 1-oxide], the results for the remaining activity at 25 µM in experiment [1] (setting [4]) and in experiment [1] (setting [5]) were > 60% and 108%, respectively. Further, the remaining activity at 100 µM is > 60% in experiment [1] (setting [6]) and 74% in experiment [1] (setting [7]).

In the case of `O=C(O)C1CSc2c(-c3cccc(C(F)(F)F)c3)c(Cc3cccc4ccccc34)cc(=O)n21` (racemic) [Compound 011, 7-(naphthalen-1-ylmethyl)-5-oxo-8-(3-(trifluoromethyl)phenyl)-2,3-dihydro-5H-thiazolo[3,2-a]pyridine-3-carboxylic acid], the results for the remaining activity at 25 µM in experiment [1] (setting [4]) and in experiment [1] (setting [5]) were > 60% and 63%, respectively. For the same compound, the remaining activity at 100 µM in experiment [1] (setting [6]) was > 60%; in experiment [1] (setting [7]), 62%.

Take `C=CCCN1CC(C(=O)O)n2c(c(-c3cccc(C(F)(F)F)c3)c(Cc3cccc4ccccc34)cc2=O)S1(=O)=O` (stereo not shown) [Compound 024, 2-(but-3-en-1-yl)-8-(naphthalen-1-ylmethyl)-6-oxo-9-(3-(trifluoromethyl)phenyl)-3,4-dihydro-2H,6H-pyrido[1,2-e][1,2,5]thiadiazine-4-carboxylic acid 1,1-dioxide]: the remaining activity at 25 µM in experiment [1] (setting [4]) was 31 to 60%; in experiment [1] (setting [5]), 35%. The remaining activity at 100 µM in experiment [1] (setting [6]) was 31 to 60%; in experiment [1] (setting [7]) it was 39%.

With `O=C(O)C1CSc2c(-c3cccc(C(F)(F)F)c3)c(Cc3cccc4ccccc34)nc(=O)n21` (stereo not shown) [Compound 022, 7-(naphthalen-1-ylmethyl)-5-oxo-8-(3-(trifluoromethyl)phenyl)-2,3-dihydro-5H-thiazolo[3,2-c]pyrimidine-3-carboxylic acid], the remaining activity at 25 µM in experiment [1] (setting [4]) is > 60%; in experiment [1] (setting [5]), 70%. The figures for the remaining activity at 100 µM in experiment [1] (setting [6]) and in experiment [1] (setting [7]) were 11 to 31% and 23%, respectively.

For `CCCN1CC(C(=O)O)n2c(c(-c3cccc(C(F)(F)F)c3)c(Cc3cccc4ccccc34)c(NC3CCCC3)c2=O)S1(=O)=O` (stereo not shown) [Compound 126, 7-(cyclopentylamino)-8-(naphthalen-1-ylmethyl)-6-oxo-2-propyl-9-(3-(trifluoromethyl)phenyl)-3,4-dihydro-2H,6H-pyrido[1,2-e][1,2,5]thiadiazine-4-carboxylic acid 1,1-dioxide], the remaining activity at 25 µM in experiment [1] (setting [4]) is 31 to 60%; in experiment [1] (setting [5]), 36%. Moreover, the remaining activity at 100 µM in experiment [1] (setting [6]) is 31 to 60%; in experiment [1] (setting [7]) it was 40%.

`Nc1c(Cc2cccc3ccccc23)c(-c2cccc(C(F)(F)F)c2)c2n(c1=O)C(C(=O)O)CS2` (racemic) [Compound 020, 6-amino-7-(naphthalen-1-ylmethyl)-5-oxo-8-(3-(trifluoromethyl)phenyl)-2,3-dihydro-5H-thiazolo[3,2-a]pyridine-3-carboxylic acid]: the remaining activity at 25 µM in experiment [1] (setting [4]) is 11 to 31%; in experiment [1] (setting [5]) it was 18%. In addition, the remaining activity at 100 µM is < 10% in experiment [1] (setting [6]) and 7% in experiment [1] (setting [7]). In experiment [3], the “CsgA expression via qRT-PCR” value is listed as “inhibit CsgA expression”.
